The subject of series [1] is zebrafish embryos. The series can be described thus: Zebrafish embryo acute toxicity assay (CZNCs). In kind it is in vivo, zebrafish (Danio rerio), AB strain. The method, then: Fertilized embryos of wild type AB zebrafish strains (Danio rerio) were collected in E3 egg medium in Petri dishes. At 3 hours post-fertilization (hpf), unfertilized and abnormal embryos were discarded. The fertilized embryos were dechorionated with pronase at 24-hpf and retained in 6 well-plates containing E3 egg medium. Next, E3 egg medium was replaced by the different concentrations of drugs to be tested.
We investigated the toxicology of CZNCs nanomaterial with an acute toxicity assay adapted by the Organization of Economic Co-operation and Development (OECD) guideline for testing chemical toxicity (No 203 and 236) and modified it for nanoparticle testing. The purified (acetic acid-free) lyophilized CZNCs nanomaterial was weighted and dissolved in DI water, then sonicated in a water bath for 15 min for several cycles until a complete homogeneous solution is achieved. Next, 24-hpf healthy dechorionated embryos were transferred to 6 well-plate containing the following treatment dissolved in E3 egg medium: (i) four different concentrations (25, 50, 100, 250 μg/mL) of CZNCs (ii) the positive control DEAB ([…]), (iii) the negative control 0.1% DMSO and then incubated at 28.5° C. for an additional 72 h until their age reached 96-hpf. Cumulative survival and mortality were recorded at 3-time point intervals (48, 72, and 96 hpf), In addition, all embryos were observed every day for any teratogenic abnormalities. […] A total of 100 embryos were used for each tested dose condition of the CZNCs, and 20 embryos for DEAB and DMSO concentrations. The toxicity assessment was expressed as a percentage of survived embryos for 96-hpf. Teratogenic score was presented as average standard error of mean. This value was calculated at every stage as the sum of different teratogenic phenotypes, expressed in percentage respect to the total number of possible teratogenic phenotypes at that precise stage of observation.

Series [2] concerns zebrafish embryos. The series can be described thus: Zebrafish embryo acute toxicity assay (CNLS-NCs). In kind it is in vivo, zebrafish (AB strain). Particulars: exposure 24-72 hpf. On the procedure: We used wild type zebrafish embryos (AB strain) in our study. For detailed information about our zebrafish aquatic system (Aquaneering, USA), original source of the zebrafish, zebrafish culture, mating protocol, and animal protocol guidelines, the reader is advised to visit the following articles. For the acute toxicity assay, at 24-hours post fertilization (hpf), embryos were dechorionated as described in. Briefly, E3 media were removed and 0.5 mg/mL of pronase enzyme (Sigma, Germany) in 10 mL PTU-E3 media was added and incubated for 10 min at 28° C. until the chorion become soft. Then, embryos were washed 2-3 times with PTU-E3 medium until the embryos were released and free from the chorion. […] The mortality rate and teratogenicity (morphological deformities) were observed and recorded at 2-time point intervals (48 and 72-hpf) using a standard stereo microscope (Zeiss, Germany). The teratogenic effects of both nanoparticles were determined based on the normal embryo morphology of the negative control (FIG. 9A), and abnormal morphology [defects in body size, heart and yolk edema, scoliosis, pigmentation, and movement problem (FIG. 9B)] of the positive control. Teratogenicity was scored at 72-hpf by calculating the number of dead and deformed embryos over the total number of […] embryos used in each concentration (50 embryos). […]

Series [3] deals with SRB induced corrosion on carbon steel (SS400). The series can be described thus: EIS of carbon steel (SS400) coupons incubated in SRB media with CLNC / CS@LS. Particulars: SRB with 5% GA. On the procedure: The carbon steel coupons were incubated in liquid medium containing enriched SRB biomass (250 mg·VSS/L) along with modified Postage's C medium in simulated inject seawater. […] 200 ml plastic bottles were used for the incubation experiments. The coupons were incubated without CLNC to evaluate the SRB induced corrosion on carbon steel. In next stage, the optimum conditions of the nanocomposite have been verified by using different ratio nanocomposites as well as optimum concentration has been tested by using different concentrations of optimum ratio CLNC. Then the optimum concentration of CLNC were added in the incubating mixture to evaluate the corrosion inhibition imparted by the nanocomposite at different time intervals. The abiotic conditions were made by incubating coupons in same manner without any SRB and nanocomposite to differentiate the SRB induced corrosion from chemical corrosion. All incubation experiments were performed in anaerobic chamber to maintain the anaerobic condition throughout the experiments. […]
EIS analysis was carried out using Gamry potentiostat (Gamry 600+, FA, USA) using the SRB treated carbon steel coupon as a working electrode, calomel and graphite disk electrodes as reference and counter electrodes, respectively. […] The EIS measurements were recorded at an open circuit potential with a 10 mV sinusoidal signal over the frequency range of 0.01-10^5 Hz Before the EIS measurements, steady state conditions were achieved by keeping the whole setup at open circuit potential (OCP) for 30 min. Potentiodynamic polarization curves were measured by scanning the potential from −250 mV to +250 mV vs OCP at a sweep rate of 0.167 mV/s. The experimental results were analyzed by Gamry Echem Analyst software version 7.05.
The mixed SRB culture was enriched from sludge biomass obtained from an offshore oil filed in Qatar. […] The optimum concentration of CS@LS was evaluated in the range of 0-1000 μg·mL^−1 CS@LS and EIS analysis was performed after 10 days of incubation. […]

As a reminder, the LC50 is the concentration that kills 50% of the test population. Lower therefore signals a more lethal substance. In the series on zebrafish embryos [1] (96-hpf, =>20% mortality), `CCN(CC)c1ccc(C=O)cc1` [DEAB, Diethylaminobenzaldehyde] yielded an LOEC of 1.0 µM. Further, the cumulative mortality with zebrafish embryos [1] (DEAB 1.0 μM, 96-hpf) amounted to 60%; in the series on zebrafish embryos [1] (DEAB at NOEC (0.1), 96-hpf) it was 10%. Also, the LC50 in the series with zebrafish embryos [1] (sigmoidal curve, 95% confidence limit) is 940 nM; in the series on zebrafish embryos [2], 2500 nM.
Regarding `O=CCCCC=O` [GA, glutaraldehyde], the bacterial growth entry in series [3] is recorded as “complete bacterial growth can be inhibited”. Further, in series [3] (15 days), the Rct is listed as 158.8 Ω·cm^2 and the Rf is on record as 136.4 Ω·cm^2.
